How the values were obtained:
Assay type in all cases: cell-based, mouse
Hmox1 = assay: Relative gene expression of Hmox1 in BMCs (qRT-PCR); conditions: 2 μM, 4 h; for Hmox1 relative expression: 4% and 1% oxygen
Text: (§1) Primary bone marrow cells (BMCs) were isolated from 8–12-week-old male C57BL/6 mice (25–30 g, AnLab, Czech Republic). Mice were housed under standard conditions. BMCs were isolated as follows: The day before isolation, phosphate-buffered saline (PBS), ACK Lysis Buffer (A10492-01, Thermo Fisher Scientific), and Iscove’s Modified Dulbecco’s Medium (IMDM) (12440-053, Thermo Fisher Scientific) were placed in a hypoxic chamber (InvivO2 400, Baker Ruskinn, UK) with adjustable oxygen control to equilibrate for the target oxygen concentrations. On the day of the experiment, animals were euthanized using ketamine/xylazine, and bilateral femurs were extracted. BMCs were flushed with hypoxic (1% O2 unless stated otherwise) PBS supplemented with 2% fetal bovine serum (FBS; low endotoxin, FB-1101/500, Biosera, France). After hemolysis at room temperature using hypoxic ACK Lysis Buffer, nucleated BMCs were washed with hypoxic PBS + 2% FBS and counted using a TC20 automated cell counter (Bio-Rad). Cells were kept under hypoxic conditions prior to treatment. The medium for BMC culture, consisting of IMDM with 2% FBS and 1% penicillin/streptomycin (LM-A4118/100, Biosera, France), was supplemented with 10 ng/mL mouse IL-3, 10 ng/mL mouse IL-6, and 50 ng/mL mouse stem cell factor - SCF (213-13, 216-16, and 250-03, respectively; all from PeproTech). Cells were cultured at 37 °C in a humidified atmosphere containing 5% CO2 and the specified oxygen concentrations (21%, 4%, or 1%).
(§2) For the relative gene expression of nuclear factor erythroid 2-related factor 2 (NRF2, encoded by Nfe2l2), heme oxygenase-1 (Hmox1), and Glutamate-Cysteine Ligase Modifier Subunit (Gclm) (Mm00477784_m1, Mm00516005_m1, Mm00514996_m1, all from Thermo Fisher Scientific), mouse BMC (3 × 10^6 cells) were cultivated on a 6-well plate in 1.5 mL of complete media (see Isolation and culture of primary cells), and then incubated with 2 μM NO2FAs or control (medium only) for 4 h at the specified oxygen levels (21%, 4%, or 1%). Then, the adherent and nonadherent cells were washed with PBS and lysed using a NucleoSpin RNA Plus kit (740984, Machery-Nagel; Germany). The concentration and purity of isolated RNA was assessed using an Infinite M200 Pro spectrophotometer (Tecan, Austria). Total RNA (0.2 μg) was reversely transcribed into first strand cDNA using a RevertAid First Strand cDNA Synthesis kit according to the manufacturer’s protocol (K1622, Thermo Fisher Scientific). qRT-PCR reactions were performed in a LightCycler480 instrument (Roche; Switzerland) using TaqMan FastAdvanced Master Mix for qPCR (4444557, Thermo Fisher Scientific) and the following program was used: uracil-N-glycosylase activation step at 50 °C for 2 min, an initial denaturation step at 95 °C for 2 min, followed by 45 cycles (95 °C for 3 s, 60 °C for 30 s), and a final cooling step at 40 °C for 1 min. Data were normalized to ribosomal protein L32 (Rpl32, Mm02528467_g1, Thermo Fisher Scientific) and presented as 2^–Δcq.
(§3) 3 Expression of NRF2 and its target genes in response to NO2FA derivatives. BMCs were cultured under 4% or 1% oxygen conditions and treated for 4 h with the tested NO 2 FAs (2 μM) or medium followed by quantification of (A) Nfe2l2, (B) Hmox1, and (C) Gclm with PCR. Results are presented as relative expression across different oxygen culture conditions. Dimethyl fumarate (DMF) was added as a control. Data are expressed as mean ± SD from 3 to 7 independent experiments (n = 3–7), analyzed with one-way ANOVA with Dunnett’s multiple comparisons test compared to the controls (*p < 0.05; **p < 0.01; ***p < 0.001).
(§4) Relative expression of (A) Hmox1 and (B) Gclm in different oxygen […]
(§5) Figure S 2. Relative expression of (A) Hmox1 and (B) Gclm in different oxygen conditions. BMCs were cultured under varying oxygen conditions (21, 4, and 1%) and treated for 4 hours with the tested 10 -NO₂OA (2 µM) or medium followed by quantification […]
(§6) with PCR. […]

Gclm = assay: Relative gene expression of Gclm in BMCs (qRT-PCR); conditions: 2 μM, 4 h; for Gclm relative expression: 4% and 1% oxygen
Text: as §1, §2, §3, §4, §5, §6

NRF2 = NRF2 translocation assay (nuclear fraction, Western blot); conditions: BMCs, 2 μM, 1 h, 1% oxygen; for translocation of NRF2 to the nucleus, fold change relative to control: nuclear fraction
Method: For the NRF2 translocation assays, 5.5 × 10^6 BMCs were incubated in 0.5 mL of complete medium with 2 μM NO2FAs or the control for 1 h in 1.5 mL microtubes, but only at 1% oxygen. Cytosol, membrane and nuclear cell compartments were isolated with a Cell Fractionation Kit (9038, Cell Signaling Technology) according to the manufacturer’s instructions. Equal volumes of nuclear lysates (20 μL/well) were loaded onto 7–15% SDS-polyacrylamide gels. Histone H3 was used as the loading control for the nuclear fraction.
5 Subcellular localization of NRF2. NO 2 FA derivatives promote nuclear translocation of NRF2 in mouse BMCs. BMCs were cultured under 1% oxygen conditions and treated for 1 h with 2 μM of 10-NO 2 OA, 10-NO 2 LA, or 10-NO 2 SA. A cell fractionation kit was used to isolate the nuclear fraction (A), followed by the detection of NRF2 and histone H3 (used as a control nuclear protein). Western blot results (A) are shown as the fold change relative to control cells. Data are expressed as mean ± SD from two independent experiments (n = 2). Statistical analysis was performed using one-way ANOVA with Dunnett’s multiple comparisons test (* p < 0.05; *** p < 0.001). (B) Representative immunocytochemistry staining of BMCs with NRF2 antibody. BMCs were cultured in 1% oxygen followed by NRF2 and nuclei (DAPI) staining. Treatment with 10-NO2OA increased the colocalization of NRF2 with the nucleus (scale bar: 20 μm).

CCCCCCCC/C=C(\CCCCCCCC(=O)O)[N+](=O)[O-] [9-NO2OA, (9E)-9-Nitro-oleic Acid]
Hmox1 relative expression (Hmox1): significant upregulation
Gclm relative expression (Gclm): significant upregulation

CCCCCC/C=C/C=C(\CCCCCCCC(=O)O)[N+](=O)[O-] [9-NO2cLA, (9E,11E)-9-Nitro Conjugated Linoleic Acid]
Hmox1 relative expression (Hmox1): upregulation that was dependent on oxygen levels
Gclm relative expression (Gclm): upregulation that was dependent on oxygen levels

CCCCC/C=C\C/C(=C\CCCCCCCC(=O)O)[N+](=O)[O-] [10-NO2LA, (9E,12Z)-10-Nitro Linoleic Acid]
Hmox1 relative expression (Hmox1): upregulation that was dependent on oxygen levels or specific target genes
Gclm relative expression (Gclm): upregulation that was dependent on oxygen levels or specific target genes
translocation of NRF2 to the nucleus, fold change relative to control (NRF2): significantly increased

CCCCCCCC/C(=C\CCCCCCCC(=O)O)[N+](=O)[O-] [10-NO2OA, (9E)-10-Nitro-oleic Acid]
Hmox1 expression at 1% oxygen compared to 21% (Hmox1; 1% vs 21% oxygen): significantly upregulated
Hmox1 relative expression (Hmox1): significant upregulation
Gclm expression at 1% oxygen compared to 21% (Gclm; 1% vs 21% oxygen): not observed
Gclm relative expression (Gclm): significant upregulation
NRF2 translocation activity relative to 10-NO2LA (NRF2): ca. 1.7 fold
translocation of NRF2 to the nucleus, fold change relative to control (NRF2): significantly increased

CCCCCCCCC(CCCCCCCCC(=O)O)[N+](=O)[O-] (stereo not shown) [10-NO2SA, 10-Nitro Stearic acid]
Hmox1 relative expression (Hmox1): no effects
Gclm relative expression (Gclm): no effects
translocation of NRF2 to the nucleus, fold change relative to control (NRF2): no effects
